Measured values taken from ChEMBL document CHEMBL1131839, “Synthesis and dopamine receptor modulating activity of unsubstituted and substituted triproline analogues of L-prolyl-L-leucyl-glycinamide (PLG)” (1999).
“And” between values parts separate entries of the source, which are not always exact repeats. Equal values may be shown once.

Experiments:
[1] = target: D(2) dopamine receptor (Bos taurus) (UniProt P20288); assay: Inhibitor constant(Ki) for Dopamine receptor D2 calculated for high affinity(KH) component of [3H]spiperidol binding in the absence of GPP(NH)p pretreated with the compound at 100 nM
[2] = target: D(2) dopamine receptor (Bos taurus) (UniProt P20288); assay: Inhibitor constant(Ki) for Dopamine receptor D2 calculated for high affinity(KH) component of [3H]spiperidol binding in the presence of GPP(NH)p pretreated with the compound at 100 nM
[3] = target: D(2) dopamine receptor (Bos taurus) (UniProt P20288); assay: Percentage of Dopamine receptor D2 in the low affinity form(RL) for the agonist was determined in the absence of GPP(NH)p pretreated with the compound at 100 nM; type: functional
[4] = target: D(2) dopamine receptor (Bos taurus) (UniProt P20288); assay: Percentage of Dopamine receptor D2 in the low affinity form(RL) for the agonist was determined in the presence of GPP(NH)p pretreated with the compound at 100 nM; type: functional
[5] = target: D(2) dopamine receptor (Bos taurus) (UniProt P20288); assay: Inhibitor constant(Ki) for Dopamine receptor D2 calculated for low affinity(KL) component of [3H]spiperidol binding in the absence of GPP(NH)p pretreated with the compound at 100 nM
[6] = target: D(2) dopamine receptor (Bos taurus) (UniProt P20288); assay: Inhibitor constant(Ki) for Dopamine receptor D2 calculated for low affinity(KL) component of [3H]spiperidol binding in the presence of GPP(NH)p pretreated with the compound at 100 nM
[7] = target: D(2) dopamine receptor (Bos taurus) (UniProt P20288); assay: Percentage of Dopamine receptor D2 in the high affinity form(RH) for the agonist was determined in the absence of GPP(NH)p pretreated with the compound at 100 nM; type: functional
[8] = target: D(2) dopamine receptor (Bos taurus) (UniProt P20288); assay: Percentage of Dopamine receptor D2 in the high affinity form(RH) for the agonist was determined in the presence of GPP(NH)p pretreated with the compound at 100 nM; type: functional
[9] = Ratio of RH to RL was determined in the absence of GPP(NH)p pretreated with the compound at 100 nM
[10] = Ratio of RH to RL was determined in the presence of GPP(NH)p pretreated with the compound at 100 nM
Rattus norvegicus [11] = assay: Maximal increase in rotations at a dose of 1 ug/kg, ip in 6-hydroxydopamine-lesioned rat model of hemi-parkinsonism.; type: functional
[12] = target: D(2) dopamine receptor (Bos taurus) (UniProt P20288); assay: Inhibitor constant(Ki) for Dopamine receptor D2 calculated for […] component of [3H]-spiperidol binding in the absence of GPP(NH)p pretreated with the compound at 100 nM
Rattus norvegicus [13] = assay: Maximal increase in rotations at a dose of 1 mg/kg, ip in 6-hydroxydopamine-lesioned rat model of hemi-parkinsonism.; type: functional; details: route intraperitoneal
Rattus norvegicus [14] = assay: Maximal increase in rotations at a dose of 0.1 ug/kg, ip in 6-hydroxydopamine-lesioned rat model of hemi-parkinsonism.; type: functional
Rattus norvegicus [15] = assay: Maximal increase in rotations at a dose of 10 ug/kg, ip in 6-hydroxydopamine-lesioned rat model of hemi-parkinsonism.; type: functional

Chain of D(2) dopamine receptor (Bos taurus) (P20288 whole entry): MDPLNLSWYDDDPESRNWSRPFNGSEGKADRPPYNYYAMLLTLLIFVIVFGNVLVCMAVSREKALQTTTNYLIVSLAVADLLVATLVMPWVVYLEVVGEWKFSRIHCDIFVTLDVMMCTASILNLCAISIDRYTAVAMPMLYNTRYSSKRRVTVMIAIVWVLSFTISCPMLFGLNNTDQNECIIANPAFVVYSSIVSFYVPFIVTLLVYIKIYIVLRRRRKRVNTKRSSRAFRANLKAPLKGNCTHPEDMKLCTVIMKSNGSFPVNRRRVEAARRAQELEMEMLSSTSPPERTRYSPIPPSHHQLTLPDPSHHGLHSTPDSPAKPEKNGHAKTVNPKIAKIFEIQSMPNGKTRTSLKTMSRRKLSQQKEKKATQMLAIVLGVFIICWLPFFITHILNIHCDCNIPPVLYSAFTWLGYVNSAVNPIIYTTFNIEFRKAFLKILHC

## NC(=O)[C@H]1CCCN1C(=O)[C@@H]1CCCN1C(=O)[C@@H]1CCCN1
[1]
  KH: 0.086 nM
[2]
  KH: 0.054 nM
[3]
  RL: 29%
[4]
  RL: 33%
[5]
  KL: 153 nM
[6]
  KL: 140 nM
[7]
  RH: 71%
[8]
  RH: 67%
[9]
  Ratio: 2.45
[10]
  Ratio: 2.03

## CC(C)C[C@H](NC(=O)[C@@H]1CCCN1)C(=O)N1CCC[C@@H]1C(N)=O
Rattus norvegicus [11]
  Increase: 26%

## C[C@@H]1CCN(C(=O)[C@@H]2CCCN2)[C@@H]1C(=O)N1CCC[C@H]1C(N)=O
[1]
  KH: 0.052 nM and 52%
[2]
  KH: 0.087 nM
  KL: 106 nM
[3]
  RL: 48%
[4]
  RL: 46%
[12]
  KL: 98 nM
[8]
  RH: 54%
[9]
  Ratio: 1.08
[10]
  Ratio: 1.17

## CC(C)CC(NC(=O)[C@@H]1CCCN1)C(=O)NCC(N)=O (single isomer, unassigned)
Rattus norvegicus [13]
  Increase: 30%

## CC(C)C[C@H](NC(=O)[C@@H]1CCCN1)C(=O)N1CCCC1C(N)=O (single isomer, unassigned)
Rattus norvegicus [14]
  Increase: 30%

## NC(=O)[C@@H]1CCCN1C(=O)[C@@H]1CCCN1C(=O)[C@@H]1CCCN1
[1]
  KH: 0.05 nM
[2]
  KH: 0.089 nM
[3]
  RL: 27%
[4]
  RL: 46%
[5]
  KL: 110 nM
[6]
  KL: 88 nM
[7]
  RH: 73%
[8]
  RH: 54%
Rattus norvegicus [15]
  Increase: 47%
[9]
  Ratio: 2.7
[10]
  Ratio: 1.17
